From US20240002379A1, “ASYMMETRIC CONJUGATE COMPOUNDS” (Pheon Therapeutics Ltd., priority 2016, published 2024)

Tests used:
TyrT DNA fragment = assay: DNA cleavage assay, TyrT fragment; format: biochemical
Protocol: The ability of 13 and of a series of compounds to cleave double-stranded DNA was investigated using a modification of the previously established DNA footprinting assay (34). Following an overnight incubation of the ligand-DNA complexes, the mixture was mixed with strand separation buffer containing 10 mM EDTA, 10 mM NaOH, 0.1% bromophenol blue, 80% formamide and incubated at 100° C. for 3 min. The mixture was then immediately cooled on ice and run on an 8% denaturing gel. […] Using the GA marker, these additional bands were identified as cleavage products produced by 13 at certain A sites of the DNA fragment.
The preparation of the TyrT DNA fragment (FIG. 8) and HexARev DNA fragment (FIG. 15) have been previously described (34). Briefly, the sequence which had been cloned into the BamHI site of pUC18 was obtained by cutting with HindIII and EcoRI. Radiolabelled DNA fragments were prepared by filling in the 3′-end of the HindIII site with [α-^32P]dATP using Klenow DNA polymerase (exo-).
The radiolabelled DNA fragment was separated from the remainder of the plasmid DNA on a 6% non-denaturing polyacrylamide gel. The gel (20 cm long, 0.3 mm thick) was run at 400 V in 1×TBE running buffer for about 1-2 h, until the bromophenol blue had run most of the way down the gel. […]

[1] = test system: three fluorescently labelled DNA sequences shown in FIG. 17; assay: FRET DNA melting, the three DNA sequences shown in FIG. 17 together; format: binding; conditions: different concentrations, all three sequences, vs control DNA
Source text: Further FRET DNA melting studies were undertaken on a number of molecules using three fluorescently labelled sequences. The sequences (FIG. 17) were designed to provide additional evidence that the series can form inter- and intrastrand cross-links. Inosines were inserted in place of traditional DNA bases in some cases to limit the number of binding sites available for the compounds to interact with. The short duplexes used in this FRET study are relatively unstable in the duplex form with a melting temperature below 30° C. so that, in the absence of ligand, a large part of the melting occurs below the starting temperature of the experiment. […] Increasing concentrations of 13 cause a greater amount of the melting transition to appear at the higher temperature (i.e. a greater number of the DNA molecules are cross-linked). A greater effect for 5′-AIIAGAITTTI′-3′ can be observed at lower concentrations of 13.
Oligonucleotides were obtained from ATDbio (Southampton, UK) in lyophilised form. They were labelled with a fluorophore molecule (F=fluorescein) at the 5′-end and a quencher molecule (Q=dabcyl) at the 3′-end of the complementary strand. Each oligonucleotide was dissolved in distilled H2O to form stock solutions of 100 PM. Working solutions of 5 μM were prepared by diluting the stock solution with distilled H2O.
The following buffers were used: 250 mM phosphate buffer pH 7.4 (consisting of sodium dihydrogen phosphate and sodium phosphate diluted in distilled H2O) and 5 M sodium chloride buffer. A11 buffers and distilled H2O were filtered through a […] filter prior to use.
For the FRET experiments a stock solutions were prepared by dissolving compound (such as compound 13) in DMSO to give a concentration of 10 mM. From this stock solution, working solutions of the desired concentration were prepared by diluting the stock solution with distilled H2O.
The reaction mixture was comprised of 4 μL of 250 mM phosphate buffer (final concentration of 50 mM), 4 μL flourophor and 4 μL quencher molecule of the appropriate oligonucleotide for a final concentration of 0.2 PM, 4 μL 5 M sodium chloride (final concentration of 1 M NaCl), and 4 μL of distilled H2O. This mixture was heated in an Eppendorf tube at 90° C. for 1 min and slowly cooled down to room temperature. This process was carried out to anneal the single strands to double-stranded DNA. Following this, 4 μL of the ligand was added in the desired concentration and the mixture incubated overnight either at room temperature or 4° C. A control sample of DNA only was prepared by mixing 4 μL 250 mM phosphate buffer (final concentration of 50 mM) with 4 μL fluorophore-labelled and 4 μL quencher-labelled oligonucleotides (of the appropriate sequence) to give a final concentration of 0.2 PM, 4 μL 5 M sodium chloride (final concentration of 1 M NaCl) and 4 μL distilled H2O. This mixture was analysed without prior annealing.
Fluorescence melting profiles were measured using a Roche LightCycler using a total reaction volume of 20 μL. Initially, the samples were denatured by heating to 95° C. at a rate of 1° C. min^−1. The samples were then maintained at 95° C. for 5 min before annealing by cooling to 25° C. at 1° C. min^−1. The samples were then held at 25° C. for a further 5 min and finally melted by heating to 95° C. at 1° C. min^−1. Annealing steps and melting steps were all recorded and changes in fluorescence were measured at 520 nm.
Tm values were obtained from the first derivates of the melting profiles using the Roche LightCycler software.

SMILES	number of preferred sites observed in the TyrT DNA fragment (TyrT DNA fragment; cleavage at A sites)	cleavage of TyrT DNA fragment (TyrT DNA fragment; overnight incubation, 100° C. for 3 min, 8% denaturing gel (FIG. 11))	effect on melting temperature / DNA stabilisation [1]
COc1cc2c(cc1OCCCC(=O)N1C[C@@H](CCl)c3c1cc(O)c1ccccc31)N=C[C@@H]1CCCCN1C2=O [Compound 13, (S)-3-(4-((S)-1-(Chloromethyl)-5-hydroxy-1,2-dihydro-3H-benzo[e]indol-3-yl)-4-oxobutoxy)-2-methoxy-7,8,9,10-tetrahydrobenzo[e]-pyrido[1,2-a][1,4]diazepin-12(6aH)-one]	three	distinct cleavage patterns	–
COc1cc2c(cc1OCc1cccc(CC(=O)N3C[C@@H](CCl)c4c3cc(O)c3ccccc43)c1)N=C[C@@H]1CCCCN1C2=O [Compound 42, (S)-3-((3-(2-((S)-1-(Chloromethyl)-5-hydroxy-1,2-dihydro-3H-benzo[e]indol-3-yl)-2-oxoethyl)benzyl)oxy)-2-methoxy-7,8,9,10-tetrahydrobenzo[e]pyrido[1,2-a][1,4]diazepin-12(6aH)-one]	–	–	increases significantly
